Assays:
Type in all cases: in vivo
[1] = tested on: green foxtail (Setaria viridis); test: Preemergence herbicidal activity, green foxtail; conditions: Rate of Application 0.3 Kg/Ha, examined after 12-17 days
[2] = tested on: common cocklebur (Xanthium strumarium L.); test: Postemergence herbicidal activity, cocklebur; conditions: rate of application 0.3 Kg/Ha, rated after 12-17 days
[3] = tested on: soybean (Glycine max var. Winchester); test: Preemergence herbicidal activity, soybean; conditions: Rate of Application 0.3 Kg/Ha, examined after 12-17 days
[4] = tested on: wheat (Triticum aestivum var. Lew); test: Postemergence herbicidal activity, wheat; conditions: rate of application 0.3 Kg/Ha, rated after 12-17 days
[5] = tested on: common chickweed (Stellaria media); test: Postemergence herbicidal activity, chickweed; conditions: rate of application 0.3 Kg/Ha, rated after 12-17 days
[6] = tested on: wheat (Triticum aestivum var. Lew); test: Preemergence herbicidal activity, wheat; conditions: Rate of Application 0.3 Kg/Ha, examined after 12-17 days
[7] = tested on: field corn (Zea mays var. Pioneer 3732); test: Preemergence herbicidal activity, corn; conditions: Rate of Application 0.3 Kg/Ha, examined after 12-17 days
[8] = tested on: morningglory (Ipomea lacunosa or Ipomea hederacea); test: Preemergence herbicidal activity, morningglory; conditions: Rate of Application 0.3 Kg/Ha, examined after 12-17 days
[9] = tested on: velvetleaf (Abutilon theophrasti); test: Postemergence herbicidal activity, velvetleaf; conditions: rate of application 0.3 Kg/Ha, rated after 12-17 days
[10] = tested on: field corn (Zea mays var. Pioneer 3732); test: Postemergence herbicidal activity, corn; conditions: rate of application 0.3 Kg/Ha, rated after 12-17 days
[11] = tested on: common chickweed (Stellaria media); test: Preemergence herbicidal activity, chickweed; conditions: Rate of Application 0.3 Kg/Ha, examined after 12-17 days
[12] = tested on: morningglory (Ipomea lacunosa or Ipomea hederacea); test: Postemergence herbicidal activity, morningglory; conditions: rate of application 0.3 Kg/Ha, rated after 12-17 days
[13] = tested on: Johnsongrass (Sorghum halepense); test: Preemergence herbicidal activity, johnsongrass; conditions: Rate of Application 0.3 Kg/Ha, examined after 12-17 days
[14] = tested on: common cocklebur (Xanthium strumarium L.); test: Preemergence herbicidal activity, cocklebur; conditions: Rate of Application 0.3 Kg/Ha, examined after 12-17 days
[15] = tested on: blackgrass (Aloepecurus myosuroides); test: Preemergence herbicidal activity, blackgrass; conditions: Rate of Application 0.3 Kg/Ha, examined after 12-17 days
[16] = tested on: velvetleaf (Abutilon theophrasti); test: Preemergence herbicidal activity, velvetleaf; conditions: Rate of Application 0.3 Kg/Ha, examined after 12-17 days
[17] = tested on: green foxtail (Setaria viridis); test: Postemergence herbicidal activity, green foxtail; conditions: rate of application 0.3 Kg/Ha, rated after 12-17 days
[18] = tested on: soybean (Glycine max var. Winchester); test: Postemergence herbicidal activity, soybean; conditions: rate of application 0.3 Kg/Ha, rated after 12-17 days
[19] = tested on: blackgrass (Aloepecurus myosuroides); test: Postemergence herbicidal activity, blackgrass; conditions: rate of application 0.3 Kg/Ha, rated after 12-17 days
[20] = tested on: Johnsongrass (Sorghum halepense); test: Postemergence herbicidal activity, johnsongrass; conditions: rate of application 0.3 Kg/Ha, rated after 12-17 days

| SMILES | PREEMERGENCE HERBICIDAL ACTIVITY (% CONTROL) SETVI [1] | Postemergence herbicidal activity (% control) XANPE [2] | PREEMERGENCE HERBICIDAL ACTIVITY (% CONTROL) SOY [3] | Postemergence herbicidal activity (% control) WHT [4] | Postemergence herbicidal activity (% control) STEME [5] | PREEMERGENCE HERBICIDAL ACTIVITY (% CONTROL) WHT [6] | PREEMERGENCE HERBICIDAL ACTIVITY (% CONTROL) CRN [7] | PREEMERGENCE HERBICIDAL ACTIVITY (% CONTROL) IPOSS [8] | Postemergence herbicidal activity (% control) ABUTH [9] | Postemergence herbicidal activity (% control) CRN [10] | PREEMERGENCE HERBICIDAL ACTIVITY (% CONTROL) STEME [11] | Postemergence herbicidal activity (% control) IPOSS [12] | PREEMERGENCE HERBICIDAL ACTIVITY (% CONTROL) SORHA [13] | PREEMERGENCE HERBICIDAL ACTIVITY (% CONTROL) XANPE [14] | PREEMERGENCE HERBICIDAL ACTIVITY (% CONTROL) ALOMY [15] | PREEMERGENCE HERBICIDAL ACTIVITY (% CONTROL) ABUTH [16] | Postemergence herbicidal activity (% control) SETVI [17] | Postemergence herbicidal activity (% control) SOY [18] | Postemergence herbicidal activity (% control) ALOMY [19] | Postemergence herbicidal activity (% control) SORHA [20] |
| --- | --- | --- | --- | --- | --- | --- | --- | --- | --- | --- | --- | --- | --- | --- | --- | --- | --- | --- | --- | --- |
| CC(C)c1cc2c(Cl)cc(F)c(-n3c(=O)cc(C(F)(F)F)n(C)c3=O)c2o1 [Compound 224] | 100% | 100% | 100% | 70% | 100% | 80% | 90% | 100% | 100% | 100% | 100% | 100% | 100% | 95% | 80% | 100% | 100% | 95% | 90% |  |
| Cn1c(C(F)(F)F)cc(=O)n(-c2c(F)cc(Cl)c3cc(C(C)(C)C)oc23)c1=O [Compound 227] | 100% | 100% | 100% | 60% | 100% | 80% | 90% | 100% | 100% | 90% | 100% | 100% | 100% |  | 95% | 100% | 100% | 95% | 100% | 100% |
| CC(OC(C)(C)C)c1cc2c(Cl)cc(F)c(-n3c(=O)cc(C(F)(F)F)n(C)c3=O)c2o1 (stereo not shown) [Compound 244] | 100% | 100% | 95% | 60% | 100% | 80% | 100% | 90% | 100% | 90% | 70% | 100% | 100% | 100% | 70% | 100% | 100% | 95% | 75% |  |
| CC(C)C(=O)OC(C)c1cc2c(Cl)cc(F)c(-n3c(=O)cc(C(F)(F)F)n(C)c3=O)c2o1 (stereo not shown) [Compound 247] | 100% | 100% | 100% | 80% | 100% | 90% | 90% | 100% | 100% | 100% | 95% | 100% | 100% | 100% | 85% | 100% | 100% | 95% | 100% |  |
| CC(OC(=O)NCc1ccccc1)c1cc2c(Cl)cc(F)c(-n3c(=O)cc(C(F)(F)F)n(C)c3=O)c2o1 (stereo not shown) [Compound 250] | 100% | 100% | 80% | 50% | 80% | 40% | 50% | 100% | 100% | 80% |  | 100% | 70% | 100% | 60% | 100% | 100% | 95% | 40% | 100% |
| Cn1c(C(F)(F)F)cc(=O)n(-c2c(F)cc(Cl)c3cc(CCCC#N)oc23)c1=O [Compound 256] | 100% | 100% | 100% | 80% | 100% | 80% | 95% | 100% | 100% | 90% | 100% | 100% | 90% |  | 70% | 100% | 100% | 100% | 80% | 100% |
| Cn1c(C(F)(F)F)cc(=O)n(-c2c(F)cc(Cl)c3[nH]cnc23)c1=O [Compound 362] | 100% |  | 100% | 100% | 100% | 100% | 100% | 100% | 100% | 100% | 100% | 100% | 100% | 100% | 100% | 100% | 100% | 100% | 100% | 100% |

Reference: patent publication US6352958B1, “Cycloimido-substituted benzofused heterocyclic herbicides” (FMC Corporation, priority 1997, dated 2002)
